Like-named read-outs stand apart in the source and are kept apart here.
Legend:
[1] = system: HCV sub-genomic replicon of genotype 1a in replicon cell line W11.8; test: microbe, parasite or virus in culture; assay type: cell-based, HCV genotype 1a; conditions: Hepatitis C virus
Excerpt: This procedure below describes the HCV replicon assay using a Huh7 hepatoma cell line harboring a highly cell culture-adapted replicon (genotype 1b) (hereafter named cell line ET). The ET cells contained the highly cell culture-adapted replicon I389luc-ubi-neo/NS3-3′/5.1 construct that carried, in addition to the neomycin gene, an integrated copy to the firefly luciferase gene (Krieger, N; Lohmann, V; Bartenschlager, R. Enhancement of hepatitis C virus RNA replication by cell culture-adaptive mutations. J. Virol. 2001, 75, 4614-4624). A replicon cell line W11.8, containing the 1a genotype of HCV was also used. These two cell lines (genotype 1b and 1a) allowed measurement of RNA replication and translation by measuring luciferase activity (against genotype 1b) or by measuring the NS5A level using the ELISA assay (against genotype 1a). […] ET cell lines were maintained in cultures at a sub-confluent level (<85%). The culture media used for cell passaging consisted of DMEM (Gibco BRL Laboratories, Mississauga, ON, Canada) supplemented with 10% fetal bovine serum with 1% penicilin/streptomycin, 1% glutamine, 1% sodium pyruvate, 1% non-essential amino acids, and 180 µg/ml of G418 final concentration.
Replicon cell lines W11.8 containing a sub-genomic replicon of genotype 1a was used for the HCV Replicon Cell-Based detection using the ELISA. The RNA replication in presence of different drug concentrations was indirectly measured in these cell lines by the level of NS5A protein content upon drug treatment for four days. The NS5A is a non-structural protein of HCV and is used as marker of HCV replication in this assay.
For the treatment of the cells with the testing drug, Culture medium was removed from the 175 cm^2 T-flask by aspiration. Cell monolayer was rinsed with 10-20 mL of PBS 1× at room temperature. PBS was removed by aspiration. Cells were trypsinized using 3 mL of Trypsin (0.25%)/EDTA (0.1%) solution. Flasks were incubated at 37° C. (incubator) for 7 minutes. Complete medium (9 mL) without G418 is then added. Cell clumps were disrupted by pipetting up and down several times.
The cell suspension was then transferred to a 50 mL Falcon polypropylene tube. Cells were then counted several times using the haemocytometer. Cells were diluted at 50,000 cells/mL with complete DMEM without G418, then transferred into a sterile reservoir. Using a multichannel pipet, approximately 5,000 viable cells (100 μL) were plated per well in a white opaque 96-well microtiter plate. After an incubation period of 2-4 hours at 37° C. in a 5% CO2 incubator, compounds were added at various concentrations.
Drugs were resuspended in DMSO at a stock concentration of 100 mM or 10 mM. […] Then, drugs were diluted at twice the final concentration in the same medium (without G418) described earlier, in sterile 96-deep well plate and according to a particular template (see Appendix). One volume (100 μL) of each drug dilution was then added to each well that contains cells.
Sixteen wells were used as control (0% inhibition) without drug. Eight wells were used as background control (100% inhibition) containing 2 μM (final concentration) of the reference compound. […] Values from 100% inhibited wells were averaged and used as the background value. Cells are further incubated for 4 days at 37° C. in a 5% CO2 incubator.
For the measurement of NS5A protein content, following the incubation time of four days, the media was throwed into an appropriate waste container by inverting the plate. Any residual liquid was removed by tapping gently on absorbent paper several times. The plates were then washed once with 150 μL of PBS per well, and then incubated for 5 minutes at room temperature on a shaker (500 rpm).

[2] = system: HCV replicon (genotype 1b) in Huh7 cell line ET; test: microbe, parasite or virus in culture; assay type: cell-based, HCV genotype 1b; conditions: Hepatitis C virus
[3] = [3H]Thymidine incorporation assay (cell toxicity); conditions: human
[4] = W11.8, 96 h, read-out: HCV-Replicon-ELISA-1a IC50
[5] = Huh-7, 96 h, read-out: HCV-Replicon (Luci-ET)-1b_IC50
[6] = W11.8, read-out: HCV-Replicon-ELISA-1a IC50
[7] = Huh-7, read-out: HCV-Replicon-(Luci-ET) 1b_IC50

Compound	IC50 [1, 4] [nM]	IC50 [2, 5] [nM]	CC50 at 72 h [3] [nM]	IC50 [1, 6] [nM]	IC50 [2, 7] [nM]
CC(C)N1CCCC[C@H](N(c2cc(C#CC(C)(C)C)sc2C(=O)O)C(=O)[C@H]2CC[C@H](C)CC2)C1=O [Compound 146, (S)-5-(3,3-Dimethylbut-1-ynyl)-3-((trans)-4-methyl-N-(1-isopropyl-2-oxoazepan-3-yl)cyclohexanecarboxamido)thiophene-2-carboxylic acid]	< 100	< 100	10000 to 100000	–	–
CC1CCC(C(=O)N(c2cc(C#CC(C)(C)C)sc2C(=O)O)[C@H]2CCCCN(C)C2=O)CC1 (stereo partly drawn) [Compound 95, 5-(3,3-dimethylbut-1-yn-1-yl)-3-(4-methyl-N—((S)-1-methyl-2-oxoazepan-3-yl)cyclohexanecarboxamido)thiophene-2-carboxylic acid]	–	–	10000 to 100000	< 100	< 100
CC1CCC(C(=O)N(CCC(=O)N(C)C)c2cc(C#CC(C)(C)C)sc2C(=O)O)CC1 (stereo not shown) [Compound 98]	–	–	> 100000	100 to 1000	< 100
COC[C@@H](C(=O)N1CCCC1)N(C(=O)C1CCC(C)CC1)c1cc(C#CC(C)(C)C)sc1C(=O)O (stereo partly shown) [Compound 35]	–	–	10000 to 100000	< 100	< 100
CC[C@@H](C(=O)N1CCOCC1)N(C(=O)c1ccc(Cl)cc1Cl)c1cc(C#CC(C)(C)C)sc1C(=O)O [Compound 143, (S)-5-(3,3-Dimethylbut-1-ynyl)-3-[(2,4-dichlorobenzoyl)-[1-(morpholine-4-carbonyl)propyl]amino]-thiophene-2-carboxylic acid]	< 100	< 100	10000 to 100000	–	–
CN(C)C(=O)CN(c1cc(C#CC(C)(C)C)sc1C(=O)O)C(=O)[C@H]1CC[C@H](C)CC1 [Compound 5, 5-(3,3-Dimethyl-but-1-ynyl)-3-[dimethylcarbamoylmethyl-(trans-4-methyl-cyclohexanecarbonyl)-amino]-thiophene-2-carboxylic acid]	–	–	> 100000	< 100	< 100
CCN1CCCC[C@H](N(c2cc(C#CC(C)(C)C)sc2C(=O)O)C(=O)[C@H]2CC[C@H](C)CC2)C1=O [Compound 134, (S)-5-(3,3-Dimethylbut-1-ynyl)-3-((trans)-4-methyl-N-(1-ethyl-2-oxoazepan-3-yl)cyclohexanecarboxamido)thiophene-2-carboxylic acid]	< 100	< 100	10000 to 100000	–	–
COC[C@@H](C(=O)N1CCOCC1)N(C(=O)C1CCC(C)CC1)c1cc(C#CC(C)(C)C)sc1C(=O)O (stereo partly shown) [Compound 23]	–	–	> 100000	< 100	< 100
CC1CCC(C(=O)N(c2cc(C#CC(C)(C)C)sc2C(=O)O)[C@H]2CCN(C)C2=O)CC1 (single isomer, unassigned) [Compound 91]	–	–	> 100000	< 100	< 100
CN1CCC[C@H](N(C(=O)c2ccc(Cl)cc2Cl)c2cc(C#CC(C)(C)C)sc2C(=O)O)C1=O [Compound 140, (S)-5-(3,3-Dimethylbut-1-ynyl)-3-[(2,4-dichlorobenzoyl)-N-(1-methyl-2-oxopiperidin-3-yl)amino]-thiophene-2-carboxylic acid]	< 100	< 100	> 100000	–	–
CC[C@@H](C(=O)N1CC2CC1CO2)N(c1cc(C#CC(C)(C)C)sc1C(=O)O)C(=O)[C@H]1CC[C@H](C)CC1 (stereo partly shown) [Compound 78]	–	–	> 100000	< 100	< 100
CN(C)C(=O)CN(C(=O)c1ccc(Cl)cc1Cl)c1cc(C#CC(C)(C)C)sc1C(=O)O [Compound 4, 3-[(2,4-Dichloro-benzoyl)-dimethylcarbamoylmethyl-amino]-5-(3,3-dimethyl-but-1-ynyl)-thiophene-2-carboxylic acid]	–	–	10000 to 100000	100 to 1000	< 100
CC[C@@H](C(=O)N(C)C)N(c1cc(C#CC(C)(C)C)sc1C(=O)O)C(=O)[C@H]1CC[C@H](C)CC1 [Compound 13]	–	–	> 100000	< 100	< 100
CC(C)CC#Cc1cc(N(CC(=O)N2CCOCC2)C(=O)[C@H]2CC[C@H](C)CC2)c(C(=O)O)s1 [Compound 130, 3-[(trans-4-methylcyclohexanecarbonyl)-(2-morpholino-2-oxo-ethyl)amino]-5-(4-methylpent-1-ynyl)thiophene-2-carboxylic acid]	100 to 1000	100 to 1000	> 100000	–	–
COCC(C(=O)N(C)C)N(C(=O)C1CCC(C)CC1)c1cc(C#CC(C)C)sc1C(=O)O (stereo not shown) [Compound 16]	–	–	> 100000	< 100	< 100
CCC[C@@H](C(=O)N1CCOCC1)N(C(=O)C1CCC(C)CC1)c1cc(C#CC(C)(C)C)sc1C(=O)O (stereo partly shown) [Compound 64]	–	–	10000 to 100000	< 100	< 100
CC(C)(C)C#Cc1cc(N(CC(=O)N2CCCC2)C(=O)[C@H]2CC[C@H](C)CC2)c(C(=O)O)s1 [Compound 6, 5-(3,3-Dimethyl-but-1-ynyl)-3-[(trans-4-methyl-cyclohexanecarbonyl)-(2-oxo-2-pyrrolidin-1-yl-ethyl)-amino]-thiophene-2-carboxylic acid]	–	–	> 100000	< 100	< 100
COCCN1CC[C@H](N(c2cc(C#CC(C)(C)C)sc2C(=O)O)C(=O)[C@H]2CC[C@H](C)CC2)C1=O [Compound 133, 5-(3,3-Dimethylbut-1-ynyl)-3-[[(3S)-1-(2-methoxyethyl)-2-oxo-pyrrolidin-3-yl]-(trans-4-methylcyclohexanecarbonyl)amino]thiophene-2-carboxylic acid]	< 100	< 100	> 100000	–	–
COCC[C@@H](C(=O)N1CCOCC1)N(C(=O)C1CCC(C)CC1)c1cc(C#CC(C)(C)C)sc1C(=O)O (stereo partly shown) [Compound 61]	–	–	> 100000	< 100	< 100
CC(C)(C)C#Cc1cc(N(CC(=O)N2CCOCC2)C(=O)[C@H]2CC[C@H](C)CC2)c(C(=O)O)s1 [Compound 14]	–	–	> 100000	< 100	< 100
CN1CCCC[C@H](N(C(=O)c2ccc(Cl)cc2Cl)c2cc(C#CC(C)(C)C)sc2C(=O)O)C1=O [Compound 137, (S)-5-(3,3-Dimethylbut-1-ynyl)-3-[(2,4-dichlorobenzoyl)-N-(1-methyl-2-oxoazepan-3-yl)amino]-thiophene-2-carboxylic acid]	< 100	< 100	> 100000	–	–
CC(C)(C)C#Cc1cc(N(C(=O)[C@H]2CC[C@H](C)CC2)[C@H]2CCN([C@H]3CCOC3)C2=O)c(C(=O)O)s1 [Compound 156, 5-(3,3-Dimethylbut-1-ynyl)-3-[(trans-4-methylcyclohexanecaronyl)-[(3S)-2-oxo-1-[(3S)-tetrahydrofuran-3-yl]pyrrolidin-3-yl]amino]thiophene-2-carboxylic acid]	4	< 100	–	–	–
C[C@@H](C(=O)NC1CCCC1)N(c1cc(C#CC(C)(C)C)sc1C(=O)O)C(=O)[C@H]1CC[C@H](C)CC1 [Compound 18, 3-[[(1S)-2-(Cyclopentylamino)-1-methyl-2-oxo-ethyl]-(trans-4-methylcyclohexanecarbonyl)amino]-5-(3,3-dimethylbut-1-ynyl)thiophene-2-carboxylic acid]	–	–	10000 to 100000	–	< 100

Reference: patent publication US20130190289A1, “COMPOUNDS AND METHODS FOR THE TREATMENT OR PREVENTION OF FLAVIVIRUS INFECTIONS” (priority 2010, published 2013)
